Test results from US11339419B2, “Scavenger protein(s) for improved preservation of analyte detection sensor(s) and method(s) of use thereof” (Siemens Healthcare Diagnostics Inc., priority 2017, dated 2022).
“And” between values parts separate entries of the source, which are not always exact repeats. Equal values may be shown once.

System: sarcosine oxidase (BBI Solutions)
Assay: BBI Solutions Sarcosine Oxidase Enzyme Absorbance with BSA and MIT
Type: biochemical
Conditions: for Sarcosine Oxidase Enzyme Absorbance, MEAN of 7-11 / Sarcosine Oxidase Enzyme Absorbance, replicates 7-11 / Sarcosine Oxidase Enzyme Absorbance, MEAN of 1-5 / Sarcosine Oxidase Enzyme Absorbance, solutions 1-5: 37° C.
[1] = Day 0, 5 mg/mL BSA only, no MIT (50 ppm MIT row)
[2] = Day 0, 5 mg/mL BSA only, no MIT (100 ppm MIT row)
[3] = Day 0, 25 mg/mL BSA only, no MIT (50 ppm MIT row)
[4] = Day 0, 25 mg/mL BSA only, no MIT (100 ppm MIT row)
[5] = Day 0, 50 mg/mL BSA only, no MIT (50 ppm MIT row)
[6] = Day 0, 50 ppm MIT, 25 mg/mL BSA
[7] = Day 0, 50 ppm MIT, 50 mg/mL BSA
[8] = Day 0, 100 ppm MIT, 5 mg/mL BSA
[9] = Day 0, 100 ppm MIT, 25 mg/mL BSA
[10] = Day 0, 100 ppm MIT, 50 mg/mL BSA
[11] = Day 4, 50 ppm MIT, 25 mg/mL BSA
[12] = Day 4, 50 ppm MIT, 50 mg/mL BSA
[13] = Day 4, 100 ppm MIT, 5 mg/mL BSA
[14] = Day 4, 100 ppm MIT, 25 mg/mL BSA
[15] = Day 4, 100 ppm MIT, 50 mg/mL BSA
[16] = Day 14, 50 ppm MIT, 5 mg/mL BSA
[17] = Day 14, 50 ppm MIT, 25 mg/mL BSA
[18] = Day 14, 50 ppm MIT, 50 mg/mL BSA

Method: Tables 1-4 depict aqueous solutions comprising varying concentrations of BSA (at concentrations of 0 mg/mL, 5 mg/mL, 25 mg/mL, and 50 mg/mL), varying concentrations of MIT (at concentrations of 50 parts per million and 100 parts per million) or Proclin™ 300 (at concentrations of 0.7% and 1.4%) biocides over a particular time period (measurements were taken at days 0, 4, and 14 after exposure of the enzyme(s) to the aqueous solutions) and the associated enzyme absorbance measurements for sarcosine oxidase (commercially offered for sale by BBI Solutions and Toyobo). Absorbance measurements of the sarcosine oxidase enzyme(s) were taken via spectrophotometer for each aqueous solution (represented as columns 1-5 in Tables 1-4—column 6 is a blank), the absorbance being directly proportional to the enzyme activity being measured-which for Tables 1-4 is sarcosine oxidase enzyme activity. Accordingly, the higher the absorbance measurement, the higher the enzyme activity of sarcosine oxidase. Columns 7-11 represent five replicate readings in which the aqueous solution only contains BSA (i.e., there is no biocide(s) present in the aqueous solution). In addition, the mean values, standard deviations, and coefficients of variation are also presented for the enzyme activity/absorbance of each aqueous solution. All measurements were taken at 37° C.
As depicted below in Table 1, sarcosine oxidase (commercially offered for sale by BBI Solutions) enzyme activity is measured against various concentrations of MIT (biocide) and BSA (scavenger protein) over a period of 14 days (with absorbance measurements taken at 0, 4, and 14 days) for five different aqueous solutions (represented as columns 1-5—column 6 is a blank).

Substance: bovine serum albumin [BSA]
- Sarcosine Oxidase Enzyme Absorbance, MEAN of 7-11 [1]: 1.39
- Sarcosine Oxidase Enzyme Absorbance, replicates 7-11 [1]: 1.428
- Sarcosine Oxidase Enzyme Absorbance, MEAN of 7-11 [2]: 1.38
- Sarcosine Oxidase Enzyme Absorbance, replicates 7-11 [2]: 1.439 and 1.414 and 1.437 and 1.422
- Sarcosine Oxidase Enzyme Absorbance, MEAN of 7-11 [3]: 1.37
- Sarcosine Oxidase Enzyme Absorbance, replicates 7-11 [3]: 1.434
- Sarcosine Oxidase Enzyme Absorbance, MEAN of 7-11 [4]: 1.39
- Sarcosine Oxidase Enzyme Absorbance, replicates 7-11 [4]: 1.43 and 1.428 and 1.409 and 1.458
- Sarcosine Oxidase Enzyme Absorbance, MEAN of 7-11 [5]: 1.41
- Sarcosine Oxidase Enzyme Absorbance, replicates 7-11 [5]: 1.454
- Sarcosine Oxidase Enzyme Absorbance, MEAN of 7-11 (Day 0, 50 mg/mL BSA only, no MIT (100 ppm MIT row)): 1.35
- % Bias (Day 0, 50 ppm MIT vs no MIT, 5 mg/mL BSA): 2.3%
- % Bias (Day 0, 50 ppm MIT vs no MIT, 25 mg/mL BSA): −0.5%
- % Bias (Day 0, 50 ppm MIT vs no MIT, 50 mg/mL BSA): −0.1%
- Sarcosine Oxidase Enzyme Absorbance, MEAN of 1-5 (Day 0, 50 ppm MIT, 5 mg/mL BSA): 1.42
- Sarcosine Oxidase Enzyme Absorbance, solutions 1-5 (Day 0, 50 ppm MIT, 5 mg/mL BSA): 1.484 and 1.435 and 1.486 and 1.455 and 1.454
- Sarcosine Oxidase Enzyme Absorbance, MEAN of 1-5 [6]: 1.37
- Sarcosine Oxidase Enzyme Absorbance, solutions 1-5 [6]: 1.385 and 1.39 and 1.401 and 1.423 and 1.433
- Sarcosine Oxidase Enzyme Absorbance, MEAN of 1-5 [7]: 1.41
- Sarcosine Oxidase Enzyme Absorbance, solutions 1-5 [7]: 1.445 and 1.468 and 1.458 and 1.406 and 1.484
- % Bias (Day 0, 100 ppm MIT vs no MIT, 5 mg/mL BSA): −0.3%
- % Bias (Day 0, 100 ppm MIT vs no MIT, 25 mg/mL BSA): 2.0%
- % Bias (Day 0, 100 ppm MIT vs no MIT, 50 mg/mL BSA): 1.9%
- Sarcosine Oxidase Enzyme Absorbance, MEAN of 1-5 [8]: 1.38
- Sarcosine Oxidase Enzyme Absorbance, solutions 1-5 [8]: 1.41 and 1.418 and 1.423 and 1.42 and 1.425
- Sarcosine Oxidase Enzyme Absorbance, MEAN of 1-5 [9]: 1.41
- Sarcosine Oxidase Enzyme Absorbance, solutions 1-5 [9]: 1.447 and 1.459 and 1.456 and 1.449 and 1.468
- Sarcosine Oxidase Enzyme Absorbance, MEAN of 1-5 [10]: 1.38
- Sarcosine Oxidase Enzyme Absorbance, solutions 1-5 [10]: 1.396 and 1.419 and 1.45 and 1.414 and 1.413
- Sarcosine Oxidase Enzyme Absorbance, MEAN of 7-11 (Day 4, 5 mg/mL BSA only, no MIT (50 ppm MIT row)): 1.41
- Sarcosine Oxidase Enzyme Absorbance, MEAN of 7-11 (Day 4, 5 mg/mL BSA only, no MIT (100 ppm MIT row)): 1.36
- Sarcosine Oxidase Enzyme Absorbance, MEAN of 7-11 (Day 4, 25 mg/mL BSA only, no MIT (50 ppm MIT row)): 1.37
- Sarcosine Oxidase Enzyme Absorbance, MEAN of 7-11 (Day 4, 25 mg/mL BSA only, no MIT (100 ppm MIT row)): 1.36
- Sarcosine Oxidase Enzyme Absorbance, MEAN of 7-11 (Day 4, 50 mg/mL BSA only, no MIT (50 ppm MIT row)): 1.47
- Sarcosine Oxidase Enzyme Absorbance, MEAN of 7-11 (Day 4, 50 mg/mL BSA only, no MIT (100 ppm MIT row)): 1.36
- % Bias (Day 4, 50 ppm MIT vs no MIT, 5 mg/mL BSA): 1.4%
- % Bias (Day 4, 50 ppm MIT vs no MIT, 25 mg/mL BSA): 3.0%
- % Bias (Day 4, 50 ppm MIT vs no MIT, 50 mg/mL BSA): −7.2%
- Sarcosine Oxidase Enzyme Absorbance, MEAN of 1-5 (Day 4, 50 ppm MIT, 5 mg/mL BSA): 1.43
- Sarcosine Oxidase Enzyme Absorbance, solutions 1-5 (Day 4, 50 ppm MIT, 5 mg/mL BSA): 1.47 and 1.446 and 1.456 and 1.467
- Sarcosine Oxidase Enzyme Absorbance, MEAN of 1-5 [11]: 1.41
- Sarcosine Oxidase Enzyme Absorbance, solutions 1-5 [11]: 1.446 and 1.431 and 1.432 and 1.448 and 1.434
- Sarcosine Oxidase Enzyme Absorbance, MEAN of 1-5 [12]: 1.37
- Sarcosine Oxidase Enzyme Absorbance, solutions 1-5 [12]: 1.429 and 1.415 and 1.37 and 1.398 and 1.381
- % Bias (Day 4, 100 ppm MIT vs no MIT, 5 mg/mL BSA): 1.5%
- % Bias (Day 4, 100 ppm MIT vs no MIT, 25 mg/mL BSA): 1.0%
- % Bias (Day 4, 100 ppm MIT vs no MIT, 50 mg/mL BSA): 1.0%
- Sarcosine Oxidase Enzyme Absorbance, MEAN of 1-5 [13]: 1.38
- Sarcosine Oxidase Enzyme Absorbance, solutions 1-5 [13]: 1.404 and 1.416 and 1.435 and 1.42
- Sarcosine Oxidase Enzyme Absorbance, MEAN of 1-5 [14]: 1.37
- Sarcosine Oxidase Enzyme Absorbance, solutions 1-5 [14]: 1.42 and 1.392 and 1.415 and 1.383 and 1.4
- Sarcosine Oxidase Enzyme Absorbance, MEAN of 1-5 [15]: 1.38
- Sarcosine Oxidase Enzyme Absorbance, solutions 1-5 [15]: 1.397 and 1.396 and 1.413 and 1.425 and 1.412
- Sarcosine Oxidase Enzyme Absorbance, MEAN of 7-11 (Day 14, 5 mg/mL BSA only, no MIT (50 ppm MIT row)): 1.39
- Sarcosine Oxidase Enzyme Absorbance, MEAN of 7-11 (Day 14, 5 mg/mL BSA only, no MIT (100 ppm MIT row)): 1.42
- Sarcosine Oxidase Enzyme Absorbance, MEAN of 7-11 (Day 14, 25 mg/mL BSA only, no MIT (50 ppm MIT row)): 1.38
- Sarcosine Oxidase Enzyme Absorbance, MEAN of 7-11 (Day 14, 25 mg/mL BSA only, no MIT (100 ppm MIT row)): 1.40
- Sarcosine Oxidase Enzyme Absorbance, MEAN of 7-11 (Day 14, 50 mg/mL BSA only, no MIT (50 ppm MIT row)): 1.37
- Sarcosine Oxidase Enzyme Absorbance, MEAN of 7-11 (Day 14, 50 mg/mL BSA only, no MIT (100 ppm MIT row)): 1.44
- % Bias (Day 14, 50 ppm MIT vs no MIT, 5 mg/mL BSA): −1.0%
- % Bias (Day 14, 50 ppm MIT vs no MIT, 25 mg/mL BSA): −0.2%
- % Bias (Day 14, 50 ppm MIT vs no MIT, 50 mg/mL BSA): 1.5%
- Sarcosine Oxidase Enzyme Absorbance, MEAN of 1-5 [16]: 1.37
- Sarcosine Oxidase Enzyme Absorbance, solutions 1-5 [16]: 1.413 and 1.372 and 1.41 and 1.423 and 1.437
- Sarcosine Oxidase Enzyme Absorbance, MEAN of 1-5 [17]: 1.38
- Sarcosine Oxidase Enzyme Absorbance, solutions 1-5 [17]: 1.413 and 1.41 and 1.422 and 1.427
- Sarcosine Oxidase Enzyme Absorbance, MEAN of 1-5 [18]: 1.39
- Sarcosine Oxidase Enzyme Absorbance, solutions 1-5 [18]: 1.434 and 1.444 and 1.427 and 1.431 and 1.432
- % Bias (Day 14, 100 ppm MIT vs no MIT, 5 mg/mL BSA): 0.3%
- % Bias (Day 14, 100 ppm MIT vs no MIT, 25 mg/mL BSA): −0.2%
- % Bias (Day 14, 100 ppm MIT vs no MIT, 50 mg/mL BSA): −0.8%
